This passage reports GI50 and TGI results from PubChem BioAssay (NCI).

Molecules are shown by their SMILES. Where “and” joins values, the source holds several entries; their conditions need not be identical. Identical values can stand only once.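 Compound exposure: 48 hours, 5 concentrations, 96-well plates. GI50: concentration for 50% inhibition of growth. TGI: total growth inhibition.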 A value given as a limit tells only on which side of the number the result lay.

Common to all, as to test: NCI-60 cell line screen, 48 h
The subject of assay [1] is NCI-H23 lung.
Assay [2] relates to LOX IMVI melanoma.
In assay [3] the test system is MDA-MB-435.
For assay [4], the system named is RXF 393 renal.
Assay [5] has as its system OVCAR-5 ovarian.
For assay [6], the system named is SK-MEL-28 melanoma.
Assay [7] relates to NCI-H226 lung.
Assay [8] relates to MOLT-4 leukemia.
Assay [9] deals with HT29 colon.
Assay [10] concerns HS 578T breast.

As for `COc1ccc(-c2cn(-c3cc(OC)c(OC)c(OC)c3)c(=O)[nH]2)cc1OC`, the GI50 in [1], in assay [2], in [3], in [4], in assay [5] and in assay [6] was greater than 100 µM in each case. Moreover, the GI50 in assay [7] was greater than 100 µM; in [8] it was greater than 100 µM; in assay [9], greater than 100 µM; in [10] it was 20.2 µM. Also, the TGI in assay [1], in assay [2], in [3], in [4], in assay [5] and in assay [6] was greater than 100 µM in each case. Further, the TGI in assay [7], in assay [8], in assay [9] and in [10] was greater than 100 µM in each case.

For `CC(=O)N[C@@H](Cc1ccc(OP(=O)(O)O)cc1)C(=O)N[C@H]1CCC(=O)N2CCC[C@@H](C(=O)NCc3ccccc3)N2C1=O`, the GI50 in assay [1], in assay [2], in assay [3], in assay [4], in [5] and in assay [6] was greater than 25 µM in each case. The GI50 in assay [7], in assay [8], in [9] and in [10] was greater than 25 µM in each case. Also, the TGI in assay [1], in assay [2], in assay [3], in assay [4], in assay [5] and in assay [6] was greater than 25 µM throughout. Besides, the TGI in [7], in assay [8], in assay [9] and in assay [10] was greater than 25 µM throughout.

For `N#CC1=C(N)Oc2c(sc3c(Br)cccc23)C1c1ccc(Cl)cc1` (stereo not given), the GI50 in assay [1] was 0.821 µM; in assay [2], 0.579 µM; in assay [3], 0.277 µM; in [4] it was 0.553 µM; in assay [5], 1.91 µM; in assay [6], 1.15 µM. For the same molecule, the GI50 in [7] is 1.49 µM; in assay [8], 0.625 µM; in assay [9] it was 0.711 µM; in [10], 0.855 µM. Besides, the TGI in [1] was 4.86 µM; in assay [2], 8.45 µM; in assay [3] it was 1.01 µM; in assay [4], 3.01 µM; in assay [5], 5.98 µM; in assay [6] it was 4.45 µM. The TGI in assay [7] was 10.4 µM; in assay [8] it was 6.49 µM; in assay [9], 2.85 µM; in [10], 18.1 µM.

Consider `NC(=O)c1cc(Br)ccc1NC(=O)/C=C/c1ccccc1`, for which the GI50 in assay [1] was 10.8 µM; in assay [2], 10.6 µM; in [3], 0.421 µM; in assay [4] it was 1.15 µM; in assay [5], 10.3 µM; in assay [6], 1.42 µM. The GI50 in assay [7] was 6.93 µM; in assay [8], 4.02 µM; in assay [9], 0.914 µM; in [10], 1.09 µM. The TGI in [1] was greater than 100 µM; in [2] it was greater than 100 µM; in [3], 3.09 µM; in assay [4], 5.9 µM; in assay [5], greater than 100 µM; in assay [6], greater than 100 µM. Also, the TGI in assay [7] is greater than 100 µM; in assay [8], greater than 53.9 µM; in assay [9], greater than 100 µM; in assay [10], 6.27 µM.

With `CC(=O)OCCCC#CC#Cc1cccc(=O)o1`, the GI50 in assay [1] was 15.8 µM; in assay [2] it was 15.8 µM; in [3], 16 µM; in [4] it was 24.3 µM; in assay [5], 22.3 µM; in [6] it was 23.9 µM. Moreover, the GI50 was 20.8 µM in assay [7], 6.59 µM in assay [8], 24.9 µM in [9] and 25.8 µM in [10]. Also, the TGI in assay [1] amounted to 33 µM; in assay [2] it was 54 µM; in [3], 31.4 µM; in assay [4], 43.8 µM; in assay [5], 42.4 µM; in [6], 55.8 µM. Further, the TGI in [7] is 52.8 µM; in [8], greater than 100 µM; in assay [9], 71.5 µM; in assay [10] it was 56.7 µM.

Regarding `CNC(=O)c1cccc(C#Cc2cncnc2Nc2ccc(OCc3cccc(F)c3)c(Cl)c2)c1`, the GI50 in assay [1] is 7.5 µM; in assay [2], 5.77 µM; in [3], 7.02 µM; in assay [4], 2.91 µM; in assay [5] it was 7.34 µM; in [6], 5.82 µM. In addition, the GI50 in assay [7] is 5.8 µM; in [8], greater than 25 µM; in [9], 8.64 µM; in [10], 7.47 µM. Further, the TGI in [1] was 24.2 µM; in assay [2], greater than 17 µM; in [3], greater than 25 µM; in assay [4], 11.7 µM; in assay [5], greater than 25 µM; in assay [6], greater than 17.7 µM. Further, the TGI was greater than 17.9 µM in assay [7], greater than 25 µM in [8], greater than 25 µM in assay [9] and greater than 25 µM in [10].

In the case of `CC1Cc2ccccc2N1C(=O)Cc1nc(N2CCOCC2)cc(=O)[nH]1` (stereo not given), the GI50 in assay [1] is 48.7 µM and > 91.5 µM; in assay [2], 11.6 µM and 16.7 µM; in assay [3] it was 20.9 µM and 27.7 µM; in assay [4] it was 0.277 µM and 1.4 µM; in [5] it was 9.09 µM and 18.2 µM; in assay [6], 5.13 µM and 18.5 µM. In addition, the GI50 in assay [7] is 36.4 µM and 32.5 µM; in [8], 15.8 µM and 27.5 µM; in assay [9] it was 8.25 µM and 34.5 µM; in [10] it was 1.75 µM and 4.13 µM. For the same molecule, the TGI in [1] was greater than 100 µM; in [2] it was 73.7 µM and > 100 µM; in assay [3], greater than 100 µM; in assay [4], 8.17 µM and 16.2 µM; in [5] it was greater than 100 µM; in assay [6], greater than 100 µM. Also, the TGI in [7] is greater than 100 µM; in [8] it was greater than 100 µM; in assay [9], greater than 100 µM; in assay [10], 33.7 µM and 49.8 µM.

As for `O=[N+]([O-])c1oc2ccc3ccccc3c2c1CCO`, the TGI in assay [1] turned out to be 17 µM; in assay [2], 9.52 µM; in assay [3], 3.16 µM; in [4], 3.71 µM; in [5] it was 34.9 µM; in assay [6] it was 3.27 µM. In addition, the TGI in assay [7] was 30.1 µM; in assay [8], greater than 100 µM; in [9] it was 25.7 µM; in assay [10], 27.7 µM.
